Source: patent publication US20060079453A1, “Hla binding peptides and their uses” (priority 2002, published 2006)
“And” between values parts separate entries of the source, which are not always exact repeats. Identical values can stand only once. Like-named read-outs stand apart in the source and are kept apart here. No end group written: not given here.

How the values were obtained:
Experiment in all cases: biochemical
HLA-B*0702 = HLA-B*0702 (Homo sapiens, UniProt P01889); assay type: binding; conditions: B*0702 binding affinity (IC50)
HLA-B*3501 = HLA-B*3501 (Homo sapiens, UniProt P01889, A329T/A93T/A95T/C349S/D201E/D98Y/E176V/E187L/E204Q/E69T/I218V/K202T/L119I/Q94N/R155S/R180L/S121R/S35A/S48A/T118I/V127L/V306I/V36M/Y140S/Y91F); conditions: B*3501 binding affinity (IC50)
HLA-B*5101 = HLA-B*5101 (Homo sapiens, UniProt P01889, A329T/A93T/A95T/C349S/D138N/D201E/D98Y/E187L/E204Q/E69T/G107R/I218V/K202T/L105A/L119W/N104I/Q94N/R106L/R155S/R180L/S101N/S121T/S35A/S48A/V306I/V36M/Y195H/Y91F); conditions: B*5101 binding affinity (IC50)
HLA-B*5301 = HLA-B*5301 (Homo sapiens, UniProt P01889, A329T/A93T/A95T/C349S/D201E/D98Y/E176V/E187L/E204Q/E69T/G107R/I218V/K202T/L105A/L119I/N104I/Q94N/R106L/R155S/R180L/S101N/S121R/S35A/S48A/T118I/V127L/V306I/V36M/Y140S/Y91F); assay type: binding; conditions: B*5301 binding affinity (IC50)
HLA-B*5401 = HLA-B*5401 (Homo sapiens, UniProt P01889, A329T/C349S/D138N/D201E/E176V/E187T/E204Q/E69G/I76V/K202T/L119W/R155S/R180L/S121T/S35A/S48A/V127L/V306I/V36M/Y140L); assay type: binding; conditions: B*5401 binding affinity (IC50)
H-2 Db = H-2 Db (Mus musculus, UniProt P01899); assay type: binding, murine; conditions: Db
H-2Ld = H-2Ld (Mus musculus, UniProt P01897); assay type: binding, murine
HLA-B*1801 = HLA-B*1801 (Homo sapiens, UniProt P01889, A329T/A93T/A95T/C349S/D201E/D54G/D98Y/E176V/E187T/E204Q/E69T/K202T/Q94N/R155S/R180L/S121R/V306I/Y140S/Y195H/Y33H/Y91S); assay type: binding
HLA-B*4002 = HLA-B*4002 (Homo sapiens, UniProt P01889, A65T/A93T/A95T/D138N/D201E/D98Y/E176V/E204Q/E69K/K202T/N87E/Q56L/Q94N/R180L/S48T/Y33H/Y91S); assay type: binding
HLA-B*4402 = HLA-B*4402 (Homo sapiens, UniProt P01889, A223V/A65T/A93T/A95T/D201E/D98Y/E176V/E187L/E204Q/E69K/G107R/H137Y/K202T/L105A/L119I/N104T/N87E/Q56L/Q94N/R106L/R155S/R180D/S101N/S121R/S35A/S48T/T118I/V36M/W191S/Y140D/Y91S); assay type: binding
HLA-B*4501 = HLA-B*4501 (Homo sapiens, UniProt P01889, A329T/A65T/A93T/A95T/C349S/D138N/D201E/D98Y/E176V/E187L/E204Q/E69K/H137Y/K202T/L119W/N87E/Q56L/Q94N/R155S/R180D/S121R/S35A/S48T/V127L/V306I/V36M/W191S/Y140L/Y33H/Y91S); assay type: binding
H-2Kk = H-2Kk (Mus musculus, UniProt P04223); assay type: binding, murine
HLA-B*4403 = HLA-B*4403 (Homo sapiens, UniProt P01889, A223V/A65T/A93T/A95T/D201E/D98Y/E176V/E187L/E204Q/E69K/G107R/H137Y/K202T/L105A/L119I/N104T/N87E/Q56L/Q94N/R106L/R155S/R180L/S101N/S121R/S35A/S48T/T118I/V36M/W191S/Y140D/Y91S); assay type: binding
HLA-B*4001 = HLA-B*4001 (Homo sapiens, UniProt P01889, A65T/A93T/A95T/D138N/D98Y/E176V/E69K/N87E/Q56L/Q94N/R180L/S121R/S35A/S48T/T167S/V36M/W171L/Y33H/Y91S); assay type: binding

Chain of H-2Ld (P01897 25-362): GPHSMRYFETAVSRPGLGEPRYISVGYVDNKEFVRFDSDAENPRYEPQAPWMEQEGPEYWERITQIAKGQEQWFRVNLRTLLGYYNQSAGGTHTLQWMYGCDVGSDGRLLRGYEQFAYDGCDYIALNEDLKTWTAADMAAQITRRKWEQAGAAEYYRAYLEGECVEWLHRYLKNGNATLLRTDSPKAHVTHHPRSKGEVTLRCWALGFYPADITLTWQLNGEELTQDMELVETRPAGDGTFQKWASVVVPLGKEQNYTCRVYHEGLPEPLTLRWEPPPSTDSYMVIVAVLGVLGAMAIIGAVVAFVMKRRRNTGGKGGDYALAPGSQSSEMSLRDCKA
Chain of H-2Ld (P61769 21-119, further chain): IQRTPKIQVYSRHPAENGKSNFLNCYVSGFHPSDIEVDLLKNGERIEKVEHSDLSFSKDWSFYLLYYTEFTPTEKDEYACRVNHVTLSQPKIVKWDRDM
Chain of H-2Kk (P04223 22-369): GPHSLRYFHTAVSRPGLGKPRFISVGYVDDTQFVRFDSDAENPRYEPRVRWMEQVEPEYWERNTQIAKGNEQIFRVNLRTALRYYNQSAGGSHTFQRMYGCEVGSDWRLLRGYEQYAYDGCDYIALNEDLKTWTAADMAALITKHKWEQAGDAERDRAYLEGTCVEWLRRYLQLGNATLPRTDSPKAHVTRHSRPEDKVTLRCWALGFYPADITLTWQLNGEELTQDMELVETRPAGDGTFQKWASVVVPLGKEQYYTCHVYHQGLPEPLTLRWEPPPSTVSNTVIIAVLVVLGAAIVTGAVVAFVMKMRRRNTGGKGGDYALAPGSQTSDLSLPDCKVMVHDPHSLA
Chain of H-2Kk (P61769 21-119, further chain): as the sequence (P61769 21-119, further chain) above
Chain of H-2 Db (P61769 21-119): as the sequence (P61769 21-119, further chain) above
Chain of H-2 Db (P01899 25-362): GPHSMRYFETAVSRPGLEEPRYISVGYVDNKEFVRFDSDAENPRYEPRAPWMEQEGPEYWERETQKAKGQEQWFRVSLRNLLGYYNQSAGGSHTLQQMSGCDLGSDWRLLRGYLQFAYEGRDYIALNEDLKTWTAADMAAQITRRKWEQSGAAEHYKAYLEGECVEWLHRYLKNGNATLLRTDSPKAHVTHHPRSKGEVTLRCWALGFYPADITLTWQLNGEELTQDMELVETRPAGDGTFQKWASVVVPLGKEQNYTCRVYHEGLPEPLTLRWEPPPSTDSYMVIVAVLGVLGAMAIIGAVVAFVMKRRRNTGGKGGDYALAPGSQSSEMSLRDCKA

Molecule: CC(C)C[C@H](NC(=O)[C@H](Cc1c[nH]cn1)NC(=O)[C@H](CCCNC(=N)N)NC(=O)[C@H](CCC(N)=O)NC(=O)[C@H](CCCCN)NC(=O)[C@H](CCC(=O)O)NC(=O)[C@H](CCC(=O)O)NC(=O)[C@@H]1CCCN1C(=O)[C@@H](N)CS)C(=O)O
- IC50 (HLA-B*0702): 10 nM
- IC50 (HLA-B*3501): > 52600 nM
- IC50 (HLA-B*5101): > 35500 nM
- IC50 (HLA-B*5301): > 109000 nM
- IC50 (HLA-B*5401): > 76900 nM

Molecule: CPTVQASKL
- IC50 (HLA-B*0702): 3250 nM
- IC50 (HLA-B*3501): 645 nM
- IC50 (HLA-B*5101): 448 nM
- IC50 (HLA-B*5301): 1860 nM
- IC50 (HLA-B*5401): 21600 nM

Molecule: KAVYNFAAM
- IC50 (H-2 Db): 4.4 nM
- IC50 (H-2Ld; Ld): 27000 nM

Molecule: HETTYNSI
- IC50 (HLA-B*1801; B*1801): 1640 nM
- IC50 (HLA-B*4002; B*4002): 336 nM
- IC50 (HLA-B*4402; B*4402): 616 nM
- IC50 (HLA-B*4501; B*4501): 6610 nM
- IC50 (H-2Kk): 1.8 nM

Molecule: SENDRYRLL
- IC50 (H-2Kk; read-out: Kk): 13 nM

Molecule: KAVYNYATM
- IC50 (H-2 Db): 2.1 nM
- IC50 (H-2Ld; Ld): > 27000 nM

Molecule: SDYEGRLI
- IC50 (HLA-B*1801): > 24800 nM
- IC50 (HLA-B*4002): 86 nM
- IC50 (HLA-B*4403): 228 nM
- IC50 (H-2Kk): 0.6 nM

Molecule: CSCC[C@H](NC(=O)[C@@H](NC(=O)[C@H](C)NC(=O)[C@H](Cc1ccccc1)NC(=O)[C@H](CC(N)=O)NC(=O)[C@H](Cc1ccc(O)cc1)NC(=O)[C@@H](NC(=O)[C@H](C)NC(=O)[C@@H](N)CCCCN)C(C)C)[C@@H](C)O)C(=O)O
- IC50 (H-2Ld; Ld): > 27000 nM

Molecule: IPQSLDSWTSL
- IC50 (H-2Ld; Ld): 0.22 nM

Molecule: NEILIRCII
- IC50 (HLA-B*1801; B*1801): 5670 nM
- IC50 (HLA-B*4002; B*4002): 59 nM
- IC50 (HLA-B*4403; B*4403): 258 nM
- IC50 (HLA-B*4501; B*4501): 3250 nM
- IC50 (H-2Kk): 12 nM

Molecule: FPLTFGWCFKI
- IC50 (HLA-B*0702): 52600 nM
- IC50 (HLA-B*3501): 4990 nM
- IC50 (HLA-B*5101): 590 nM
- IC50 (HLA-B*5301): 188 nM

Molecule: EEKHEKKHV
- IC50 (H-2Kk): 284 nM

Molecule: KAVANFATM
- IC50 (H-2 Db): 1.2 nM
- IC50 (H-2Ld; Ld): 27000 nM

Molecule: YPHFMLPTNL
- IC50 (H-2Ld; read-out: Ld): 7.5 nM

Molecule: YEDTGKTI
- IC50 (HLA-B*1801; B*1801): 14000 nM
- IC50 (HLA-B*4001; B*4001): 794 nM
- IC50 (HLA-B*4002; B*4002): 83 nM
- IC50 (HLA-B*4402; B*4402): 7910 nM
- IC50 (HLA-B*4501; read-out: B*4501): 49000 nM
- IC50 (H-2Kk): 0.86 nM

Molecule: APCNFFTSA
- IC50 (HLA-B*0702): 43 nM
- IC50 (HLA-B*3501): 8090 nM
- IC50 (HLA-B*5301): > 22400 nM
- IC50 (HLA-B*5401): 0.61 nM

Molecule: FPVRPQVPI
- IC50 (HLA-B*0702): 94 nM
- IC50 (HLA-B*3501): 124 nM
- IC50 (HLA-B*5101): 39 nM
- IC50 (HLA-B*5401): 9.1 nM

Molecule: YEANGNLI
- IC50 (HLA-B*1801): 191 nM
- IC50 (HLA-B*4001): 7.9 nM
- IC50 (HLA-B*4002): 7 nM
- IC50 (HLA-B*4402): 516 nM
- IC50 (H-2Kk): 0.65 nM

Molecule: YPLTFGWCI
- IC50 (HLA-B*0702): 54300 nM
- IC50 (HLA-B*5401): 79 nM

Molecule: YENDIEKKI
- IC50 (HLA-B*1801; B*1801): 31000 nM
- IC50 (HLA-B*4402; B*4402): 1730 nM
- IC50 (HLA-B*4403; B*4403): 371 nM
- IC50 (H-2Kk): 3.8 nM

Molecule: FPVGPGPGL
- IC50 (HLA-B*3501): 14 nM
- IC50 (HLA-B*5101): 138 nM
- IC50 (HLA-B*5301): 32 nM
- IC50 (HLA-B*5401): 246 nM

Molecule: RPQASGVYM
- IC50 (H-2 Db): > 44000 nM
- IC50 (H-2Ld; Ld): 0.99 nM and 3 nM

Molecule: VESENKVV
- IC50 (H-2Kk): 349 nM

Molecule: CC(C)C[C@H](NC(=O)[C@H](C)NC(=O)[C@@H](NC(=O)[C@H](CC(C)C)NC(=O)[C@H](C)NC(=O)[C@@H](NC(=O)[C@@H](NC(=O)[C@H](CCCNC(=N)N)NC(=O)[C@@H]1CCCN1C(=O)[C@H](C)N)[C@@H](C)O)C(C)C)[C@@H](C)O)C(=O)O [APRTVALTAL]
- IC50 (HLA-B*0702): 12 nM
- IC50 (HLA-B*3501): 4350 nM
- IC50 (HLA-B*5101): 14600 nM
- IC50 (HLA-B*5301): 61600 nM
- IC50 (HLA-B*5401): 16800 nM

Molecule: GPGHKARVI
- IC50 (HLA-B*0702): 1690 nM
- IC50 (HLA-B*3501): > 72000 nM
- IC50 (HLA-B*5101): > 55000 nM
- IC50 (HLA-B*5401): > 50000 nM
